Values quoted from earlier work as cited in US20120058942A1, “METHODS FOR CONTROLLING BLOOD-GLUCOSE LEVELS IN INSULIN-REQUIRING SUBJECTS” (priority 2010, published 2012).
No end group written: not given here.

Legend:
[1] = humans with diabetes mellitus
[2] = human volunteers, insulin-treated T1D

In the case of “gastric-inhibitory polypeptide (YAEGTFISDYSIAMDKIHQQDFVNWLLAQKGKKNDWKHNITQ; Gastric inhibitory polypeptide; UniProt P09681 52-93, looked up) [GIP, insulin-stimulating hormone of the entero-insular axis]”, the “stimulation of insulin secretion” value [1] is given as “failed to stimulate insulin secretion”.

In the case of “Glucagon-like peptide-1 (HAEGTFTSDVSSYLEGQAAKEFIAWLVKGR; ends and bridges not checked; UniProt P01275 98-127, looked up) [GLP-1, incretin; post-translational product of the glucagon gene in the intestinal L-cell]”, the “rise in blood glucose that accompanies absorption of a standard meal” value ([2]; continued insulin by IIT) is listed as “powerfully restrict the rise in blood glucose”, the “absorption of the meal” value ([2]; standard meal) is listed as “delay in absorption of the meal” and the secretion of glucagon ([2]; standard meal) is listed as “suppression of secretion of glucagon”. For the same substance, the “stimulation of insulin secretion” value [1] was “capable of stimulating insulin secretion”.
